Measured values: US10833345B2, “Materials for high-performance aqueous organic redox flow batteries” (UNIVERSITY OF SOUTHERN CALIFORNIA, priority 2016, dated 2020)
Each block holds one molecule with its values, some of them ahead of it.

Columns and labels:
[1] = Rotating disk electrode study of hydroxyl-substituted anthraquinones in NaOH; type: physicochemical; conditions: Hydroxy anthraquinones in NaOH
Excerpt: Bifunctional redox molecules can also be a molecule with different redox properties in various ranges of potentials. This type of molecule is typified by the substituted hydroxy anthraquinones. In this regard, redox properties of several substituted anthraquinones have been studies. Electrochemistry experiments on the rotating disk electrode confirm the existence of two diffusion limited regions separated by a significant potential difference of 0.5 V to 1.0 V for certain types of substitutions (FIG. 6). For these molecules, two different redox processes occur at different potentials. Those molecules which have hydroxyl substituents in positions such as 1,2- and 1, 4- are particularly suitable for this purpose.
In Table 2 below we summarize the properties of these types of substituted anthraquinones that can be used on both as positive and negative electrode materials and others that have similar moieties but are not suitable for this type of deployment. The use of these molecules is suitable for use both acidic and alkaline media as shown by the rotating electrode studies.

[2] = Rate of crossover through NAFION 117 membrane; type: physicochemical; conditions: for concentration appearing by crossover through the membrane: 192 hours; for crossover rate rank order: over 192 hours
Excerpt: In another embodiment, compounds for the first redox couple 22 and/or the second redox couple 32 of FIG. 1 that reduce crossover between the anode and cathode compartments are provided. The crossover of the redox active species across the cell is largely determined by the molecular size. Examples of the redox compounds of this embodiment include, but are not limited to, para-toluene sulfonic acid (p-TSA), 2,6-dimethyl-1,4-dihydroxy benzene 3-mono-sulfonic acid, 1,2-dihydroxybenzene-3,5-disulfonic acid (BQDS), and anthraquinone-2,7-disulfonic acid (AQDS). The rate of crossover of the various types of positive electrode materials through a NAFION® 117 membrane was measured. The concentration of p-TSA appearing by crossover through the membrane is found to be much higher than that of the DMDHMS and BQDS (FIG. 6). […] The crossover rate measured over a period of 192 hours provided a rank order of p-TSA>DMDHMS≈BQDS>>AQDS. This rank order correlates with molecular size. The molecules of smaller size will diffuse more readily through the proton conducting membrane. Therefore, it is claimed that by modifying the size of the molecule we can suppress or reduce crossover. The redox active molecules that are prone to crossover may be modified in the size by either applying substituent groups. Such substituent groups can be simple methyl groups, sulfonic acid groups, alkyl groups, branched alkyls such as tertiary butyl, aromatic groups such as phenyl or benzyl groups, multi-ring aromatic groups such as naphthyl, anthracenyl (with or without substituents) amino, quaternary amino, keto, carboxyl and quinone groups. Examples of such redox active molecules with substituents that are enhanced in molecular size include the following compounds having formula II, III, and IV: […]

[3] = Cyclic voltammetry of redox couples in alkaline electrolyte; type: physicochemical; conditions: for reduction potential: vs. mercury/mercuric oxide reference electrode (MMO)
Excerpt: The redox couples must be soluble in the alkaline electrolyte and must can undergo facile electron transfer.
The reduction potential for this couple in alkaline electrolyte is about −0.35 V vs. MMO.
While these compounds are not suitable for operation in acidic media because of the attendant polymerization reactions, these compounds perform well in alkaline media. […] The reduction potentials are quite negative relative to the last example of DHA. Consequently, this may be combined with AQDS to form a redox flow battery.
The electrochemical reversibility of such a Michael addition-resistant compound is shown in FIG. 29 for benzenedi-hydroxy tetracarboxylic acid also called hydroquinonetetracarboxylic acid (HQTC). […] The reduction potential of HQTC is such that it can be combined with DHA to create a redox flow battery with a cell voltage of 0.5 V (FIG. 30). Further HQTC can also be combined with the molecules from the quinoxaline family, and the flavin family to yield redox flow batteries with the cell voltage in the range of 0.5 to 1 V. 1,2,4-trihydroxyanthraquinone (Purpurin) is claimed to be a negative electrode material suitable for operation in alkaline media.

[4] = Cyclic voltammetry and redox cell states of AMBSA; type: physicochemical; conditions: FIG. 4
[5] = Charge and discharge cycling of organic redox flow cells; conditions: cell with anthraquinone-2,7-disulfonic acid, 0.5 M each
Excerpt: In another embodiment, the effects of crossover can be mitigated by using a mixture of positive and negative electrolyte materials in equimolar quantities at both the electrodes. When such a mixture is charged only the positive electrolyte component will undergo oxidation reaction at the positive electrode and the negative electrolyte material will undergo reduction reactions at the negative electrode. Since the concentration of the redox active species is identical even if crossover occurs, the positive electrolyte material occurred to the negative electrolyte side this change in concentration will be balanced by back diffusion. Thus, there might be self-discharge but no permanent capacity loss or compositional change of the electrolyte. Any two redox couples that qualify as positive and negative electrolyte materials can be mixed in equimolar proportions and used as the electrolyte. We have shown the feasibility of rechargeability of this type of mixed materials using DMDHMS and AQDS (FIG. 8). Nearly 100% of the charge input was returned during discharge.
Based on the electrode potentials, the DHA can serve as the negative electrolyte and the AQDS can serve as the positive electrolyte. […] The cell was charged and discharged at 8 mA/cm^2. The value of cell voltage was consistent with that expected from the reduction potential of the redox couples. […]

[6] = Crossover rate through NAFION 324 versus NAFION 117 membrane; type: physicochemical; conditions: NAFION 324 (25-micron EW 1500 layer, 150-micron EW 1100 layer) vs NAFION 117 (EW 1100)
Excerpt: In a variation, the reduced rate of crossover of the redox active molecules is achieved by using a membrane with a higher equivalent weight of NAFION®. The membrane NAFION® 324, has a 25-micron layer of equivalent weight 1500 and a 150-micron layer of equivalent weight 1100. The crossover rate of DMDHMS through such a membrane is just 0.65 of that through a homogenous NAFION® 117 membrane that has an equivalent weight of 1100 throughout the membrane.

[7] = alkaline electrolyte, 1 M potassium hydroxide

Di-Couple Potential (yes/no) [1]: Yes | Di-Couple Potential difference [1]: 840 mV | E1/2(Volts) vs MMO [1]: −0.84 V
Compound: O=C1c2ccccc2C(=O)c2c(O)c(O)cc(O)c21 [1,2,4-trihydroxy anthraquinone]

Di-Couple Potential (yes/no) [1]: No | E1/2(Volts) vs MMO [1]: −0.65 V
Compound: O=C1c2cccc(O)c2C(=O)c2cccc(O)c21 [1,5-dihydroxy anthraquinone]

concentration appearing by crossover through the membrane [2]: not detected | crossover rate rank order [2]: p-TSA>DMDHMS≈BQDS>>AQDS | electrochemical behavior (cyclic voltammogram) ([3]; 1 M sodium hydroxide): reversible electrochemical behavior | reduction potential ([3]; 1 M sodium hydroxide): about −0.35 V
Compound: O=C1c2ccc(S(=O)(=O)O)cc2C(=O)c2cc(S(=O)(=O)O)ccc21 [AQDS, anthraquinone-2,7-disulfonic acid]

Compound: O=C1c2ccccc2C(=O)c2c1cc(S(=O)(=O)O)c(O)c2O [1,2-dihydroxy, 3-sulfonic acid anthraquinone]
Di-Couple Potential (yes/no) [1]: Yes | Di-Couple Potential difference [1]: 930 mV | E1/2(Volts) vs MMO [1]: −0.75 V

electrochemical behavior (cyclic voltammogram) ([3]; 1 M sodium hydroxide): reversible electrochemical reaction | reduction potential ([3]; 1 M sodium hydroxide): about −0.7 V
Compound: O=C1c2cccc(O)c2C(=O)c2c(O)cccc21 [DHA, 1,8-dihydroxyanthraquinone]

Compound: O=C1c2ccccc2C(=O)c2c1ccc(O)c2O [difference1,2-dihydroxy anthraquinone, 1,2-dihydroxy anthraquinone]
Di-Couple Potential (yes/no) [1]: Yes | Di-Couple Potential difference [1]: 1 V | E1/2(Volts) vs MMO [1]: −0.73 V

Compound: O=C(O)c1c(O)c(C(=O)O)c(C(=O)O)c(O)c1C(=O)O [HQTC, hydroquinonetetracarboxylic acid]
electrochemical behavior (cyclic voltammogram) [3, 7]: reversible electrochemical behavior with two different sets of peaks

Di-Couple Potential (yes/no) [1]: Yes | Di-Couple Potential difference [1]: 880 mV | E1/2(Volts) vs MMO [1]: −0.63 V
Compound: O=C1c2ccccc2C(=O)c2c(O)ccc(O)c21 [1,4-dihydroxy anthraquinone]

crossover rate rank order [2]: p-TSA>DMDHMS≈BQDS>>AQDS
Compound: O=S(=O)(O)c1cc(O)c(O)c(S(=O)(=O)O)c1 [BQDS, 1,2-dihydroxybenzene-3,5-disulfonic acid]

Compound: Cc1ccc(S(=O)(=O)O)cc1 [p-TSA, para-toluene sulfonic acid, reference compound]
concentration appearing by crossover through the membrane [2]: much higher | crossover rate rank order [2]: p-TSA>DMDHMS≈BQDS>>AQDS

electrochemical behavior (cyclic voltammogram) [3, 7]: reversible electrochemical behavior
Compound: c1ccc2nccnc2c1 [quinoxaline]

cyclic voltammogram peaks [4]: two distinct peaks
Compound: O=C1c2ccccc2C(=O)c2cc(Cc3cc(O)cc(S(=O)(=O)O)c3O)ccc21 [AMBSA, 2-anthraquinonemethyl (p-benzoquinol sulfonic acid)]

resistance to Michael reaction, cycles of charge and discharge [5]: at least 100 cycles
Compound: Cc1cc(O)c(C)c(S(=O)(=O)O)c1O [2,5-dimethyl-1,4-dihydroxybenzene-3-sulfonic acid]

crossover rate through NAFION 324 relative to NAFION 117 [6]: 0.65 | crossover rate rank order [2]: p-TSA>DMDHMS≈BQDS>>AQDS
Compound: Cc1cc(O)c(S(=O)(=O)O)c(C)c1O [DMDHMS, 2,6-dimethyl-1,4-dihydroxybenzene-3-sulfonic acid]

Di-Couple Potential (yes/no) [1]: No | E1/2(Volts) vs MMO [1]: −0.8 V
Compound: O=C1c2ccc(O)cc2C(=O)c2ccc(O)cc21 [2,6-dihydroxy anthraquinone]
